From US20210038668A1, “TRADITIONAL CHINESE MEDICINE COMPOSITION FOR PREVENTING AND/OR TREATING ISCHEMIC REPERFUSION INJURY” (TASLY PHARMACEUTICAL GROUP CO., LTD., priority 2018, published 2021)

Columns and labels:
Type in all cases: in vivo, C57BL/6 mice
[1] = system: thrombus of arteria carotis communis; assay: Observation of carotid thrombus size, FeCl3 model
Experimental: Mice were anesthetized via intraperitoneal injection by pentobarbital sodium (2%, 45 mg/kg), and neck kin was sterilized. A median incision was cut on the neck, exposed and isolated to obtain arteria carotis communis; a waterproof cushion was used to isolate arteria carotis communis with the length of about 2.5-3 mm from surrounding tissues. The isolated arteria carotis communis was wrapped by a filter paper soaked by 10% FeCl3 for about 1 mm (width), and the filter paper was removed 3 minutes later, the outside of blood vessel was washed by 0.9% normal saline. The waterproof cushion was removed. The neck incision was sutured. The start of Fe3+ stimulation was defined as the beginning of ischemia, and those mice meeting the following conditions were selected into the group: the blood vessel was blocked at the maximum diameter of the neck thrombus 10 minutes after ischemia; the blood flow of the carotid artery distal end was less than 20% of the base value 15 minutes after ischemia; and the thrombus was stable 4.5 hours after ischemia (before reperfusion); the carotid artery vessel at 60% and more of the diameter was blocked by the maximum diameter of the thrombus.
Mice were treated by medicaments or normal saline according to random grouping results 4.5 hours after ischemia. Mice femoral vein was intubated, and left femoral vein was injected tPA (tissue plasminogen activator) or normal saline; right femoral vein was injected the traditional Chinese medicinal composition of the present invention or normal saline; 10% of the total dose was injected via an injection pump, and the rest 90% were continuously injected intravenously for 1 hour with the rate of 0.1 ml/h. Three proportion groups were selected to the traditional Chinese medicinal composition of the present invention respectively below:
Carotid thrombus of mice was dynamically observed by an upright microscope. Anesthetized mice were placed on a board in supine position, a median incision was cut on the neck; arteria carotis communis was exposed and separated; femoral vein was given Acridine red fluorescence labeling of blood platelet to observe the change of carotid thrombus of mice before ischemia (namely, a base value), 10 minutes after ischemia, 4.5 hours after ischemia (namely, before reperfusion), 1 hour after reperfusion, 2 hours after reperfusion and 24 hours after reperfusion. There was no thrombus before ischemia (namely, a base value); the blood vessel was blocked by thrombus at a maximum diameter 10 minutes after ischemia; blood flow at the distal end of carotid artery decreased to 20% of the base value below 15 minutes after ischemia; the thrombus was stable 4.5 hours after ischemia (namely, before reperfusion). The success criterion is that the size of thrombus blocks 60% of the vascular area of carotid artery and above; the success rate of entry is up to 90.9%. Excepting for the sham-operated group and each basal group, the rest groups were randomly allocated after building models successfully.

[2] = system: mice with carotid artery thrombus; assay: 18-Score Modified Neurological Severity Score, mice
Experimental: Neurological scoring was conducted to each group of […] after reperfused for 3 hours and 24 hours based upon scoring standards (18 scores), as shown in table 2:
Another scoring method is introduced hereafter. Modified neurological severity scores, mNSS, the score is within the range of 0-18. The scoring method is referring to 1.4 of Example 1.
18-Score Modified Neurological Severity Score (normal mice=0; the higher the score is, the more severe the nerve injury is), and a 15-score standard (normal mice=15, dead mice=0) are applied.

ZO-1 = assay: Western blotting of ZO-1, cortex of ischemic penumbra; details: brain tissue 24 hours after administration, sham = 1.00; tPA 10 mg/kg alone; T541 20 mg/kg + tPA 10 mg/kg
Experimental: (§1) After reperfused for 24 hours, mice were perfused by normal saline; Western blotting analysis was conducted to the penumbra field of infarcted right cerebral cortex. After perfused, mice brain tissue was taken out; cerebellum and prefrontal lobe were cut off; the brain tissue of right brain close to 1 cm of the central joint of left and right hemispheres along the sagittal view; infarcted penumbra field of the rest tissues was cut off along an 45° angle; the cerebral cortex of the penumbra field was peeled off and preserved at low temperature. Right cerebral cortex was taken and added 1×RIPA lysate and a Cocktail protease inhibitor (1:100, Cell Signaling Technology, US) for full pyrolysis and ultrasonic treatment, and then 17000 g were centrifuged for 30 minutes. Supernatant was taken and added 5×loading buffer by volume, boiled for 20 minutes in boiling water, and then preserved at −80° C. Excessive supernatant was taken out and quantified by a BCA protein quantification liquor (ThermoScientific, US) to measure absorbance value at 560 nm of ELIASA and to calculate the protein concentration according to a standard curve. […] The density of electrophoretic strips was analyzed by an image analysis software Quantityone. […]

cerebral hemorrhage = assay: Hemoglobin in right hemisphere tissue (cerebral hemorrhage); details: 24 h after administration, tPA 10 mg/kg alone, T541 20 mg/kg + tPA 10 mg/kg
Experimental: After reperfused for 24 hours, mice were perfused via heart by a PBS buffer precooled at 4° C. and separated brain via craniotomy; the brain was cut from front to back into 5 slices in a brain stereotaxic apparatus; bleeding condition was rapidly shoot by a stereoscopic microscope; then slices were stored at −80° C.; and hemoglobin was measured by a hemoglobin spectrophotometry cassette.

Collagen IV = assay: Western blotting of Collagen IV, basement membrane; details: brain tissue 24 hours after administration, sham = 1.00; tPA 10 mg/kg alone; T541 20 mg/kg + tPA 10 mg/kg
Experimental: as §1

Laminin = assay: Western blotting of Laminin, basement membrane; details: brain tissue 24 hours after administration, sham = 1.00; tPA 10 mg/kg alone; T541 20 mg/kg + tPA 10 mg/kg
Experimental: as §1

[3] = before administration, groups: tPA 10 mg/kg alone, T541 20 mg/kg, T141 12 mg/kg, T582 15 mg/kg each + tPA 10 mg/kg
[4] = iv, tPA 10 mg/kg alone, T541 20 mg/kg, T141 12 mg/kg, T582 15 mg/kg each + tPA 10 mg/kg

tPA: tissue-type plasminogen activator (tPA) for thrombolysis
Size of thrombus, 10 minutes after FeCl3 simulation [1, 3]: 25.13 ± 1.34 | Size of thrombus, Before FeCl3 simulation [1, 3]: 0 ± 0 | thrombolysis effect (in words) ([1]; given alone: T541 20 mg/kg, tPA 10 mg/kg (24 hours later)): size of thrombus decreases obviously | Size of thrombus, 5.5 hours after FeCl3 simulation (1 hour after administration) [1, 4]: 22.14 ± 1.36 | Size of thrombus, 6.5 hours after FeCl3 simulation (2 hours after administration) [1, 4]: 16.64 ± 4.10 | Size of thrombus, 28.5 hours after FeCl3 simulation (24 hours after administration) [1, 4]: 11.15 ± 2.61 | Size of thrombus, 4.5 hours after FeCl3 simulation ([1]; start of administration, groups: tPA 10 mg/kg alone, T541 20 mg/kg, T141 12 mg/kg, T582 15 mg/kg each + tPA 10 mg/kg): 23.47 ± 1.78 | 18-Score Modified Neurological Severity Score ([2]; 24 hours after administration, normal = 0, tPA 10 mg/kg alone, T541 20 mg/kg, T141 12 mg/kg, T582 15 mg/kg each + tPA 10 mg/kg): 7.45 ± 0.73 | neurological scoring 24 hours after administration (in words) ([2]; tPA alone, low/medium/high-dose T541 + tPA): may not improve the neurological scoring | ZO-1/β-actin (ZO-1): 0.42 ± 0.05 | Hemoglobin (cerebral hemorrhage): 13.55 ± 3.72 | Collagen IV content (Collagen IV): 0.68 ± 0.04 | Laminin content (Laminin): 0.47 ± 0.06
